Reference: patent publication US12377083B2 (WUHAN LL SCIENCE AND TECHNOLOGY DEVELOPMENT CO., LTD., priority 2019, dated 2025)
Like-named read-outs stand apart in the source and are kept apart here.

Legend:
[1] = biological target: hLPAR1 (human lysophosphatidic acid receptor 1) (Homo sapiens, UniProt Q92633); assay: FLIPR assay of intracellular calcium increase induced by activation of hLPAR1 expressed in CHO-K1 cells; type: cell-based; settings: CHO-K1 cells expressing hLPAR1, agonist oleoyl-L-α-lysophosphatidic acid 1 μM
Sequence of hLPAR1 (human lysophosphatidic acid receptor 1) (Q92633 whole entry): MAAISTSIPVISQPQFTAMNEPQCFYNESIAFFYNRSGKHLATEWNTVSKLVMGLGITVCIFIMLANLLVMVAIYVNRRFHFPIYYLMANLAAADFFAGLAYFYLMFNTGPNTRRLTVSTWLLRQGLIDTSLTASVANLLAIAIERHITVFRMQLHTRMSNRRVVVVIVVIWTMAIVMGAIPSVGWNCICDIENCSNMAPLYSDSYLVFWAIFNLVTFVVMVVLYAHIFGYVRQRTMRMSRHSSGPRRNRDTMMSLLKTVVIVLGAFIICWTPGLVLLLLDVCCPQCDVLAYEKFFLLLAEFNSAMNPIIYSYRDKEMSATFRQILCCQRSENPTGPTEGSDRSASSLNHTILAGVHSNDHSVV
Experimental: The antagonist property of the compounds disclosed herein was determined using the FLIPR (fluorescence imaging plate reader) method, wherein the compounds are inhibitors for the intracellular calcium increase induced by activation of hLPAR1 (human lysophosphatidic acid receptor 1, accession No. NM_001401.4) expressed in CHO-K1 cells (Chinese hamster ovary cells K1, ATCC).
Cells at 250,000 cells/mL were seeded into a 96-well plate (25,000 cells/well) 18-24 h prior to the FLIPR experiment and then incubated overnight in a cell incubator. […] Each well was added with 75 μL of […] Fluo-4 AM fluorescent dye (Thermo, F14202) and then the cells were subjected to dye-loading incubation at 37° C. for 1.0 h. The 96-well plate was then washed once with buffer, added with a buffer containing a test compound or a vehicle at 50 μL per well and then incubated for 30 min at room temperature. […] An agonist (oleoyl-L-α-lysophosphatidic acid sodium salt (Sigma, L7260)) at a final concentration of 1 μM or a vehicle (ultrapure water) was then added at 50 μL/well, fluorescence values were measured for 2 min at 1-second intervals, and finally the output fluorescence counts were analyzed.

[2] = tested on: A2058 (human melanoma cells); assay: A2058 cell scratch (migration) assay with LPA; type: cell-based; settings: 10 μM LPA, scratch area at 24 h
Experimental: The activity of the compounds disclosed herein at the cell level in vitro is evaluated by A2058 (human melanoma cells, Beina Bio, BNCC341099) cell scratch assay. The inhibitory activity of the compounds against LPAR1 can be reflected by inhibition of cell scratch healing.
After the cell confluence reached 80%, the cell culture plate was taken out and the original medium was discarded. Serum-free medium was then added, and the cells were starved overnight in an incubator (37° C., 5% CO2). The cell culture plate was then taken out, and cell scratches were made along the diameter of the wells using a 200 μL pipette tip. The cell culture plate was then added with 500 μL of serum-free medium and then shaken gently to wash away the residual cells on the scratched surface, and this was repeated twice. The medium was discarded and 500 μL of 1% FBS medium containing the compound was then added, and the mixture was incubated at 37° C. for 30 min. […] Olympus CKX53 was used to observe the scratches, and MShot image analysis system was used to take pictures and measure the scratch area at 0 h. The plate was incubated in the incubator under the conditions of 37° C. and 5% CO2. 24 h later, the scratches were observed again with Olympus CKX53, and MShot image analysis system was used to take pictures and measure the scratch area at 24 h. Cell migration inhibition rate was calculated according to the following formula: […]

Row | Structure (SMILES) | IC50 ([1]; read-out: LPAR1 IC50) | Cell migration inhibition rate (%) [2] | IC50 ([1]; LPAR1 IC50 (μM))
1 | CN(C(=O)OCc1c(-c2ccc(C3CCC[C@H](C(=O)O)C3)cc2)cnn1C)C1CCCC1 (mixture of isomers) [Compound 73] | 0.3 to 10 µM |  | 
2 | Cc1nc(-c2cnn(C)c2COC(=O)N2CC3CCC2CO3)ccc1O[C@H]1CCC[C@H](C(=O)O)C1 (mixture of isomers) [Compound 96] | 0.3 to 10 µM |  | 
3 | Cc1nc(-c2cnn(C)c2COC(=O)N(C)C2COC2)ccc1O[C@H]1CCC[C@H](C(=O)O)C1 (racemic) [Compound 64, (+/−)-(1S,3S)-3-((2-methyl-6-(1-methyl-5-(((methyl(oxetan-3-yl)carbamoyl)oxy)methyl)-1H-pyrazol-4-yl)pyridin-3-yl)oxy)cyclohexane-1-carboxylic Acid] | 0.3 to 10 µM | C (C: 0-30%) | 
4 | Cc1nc(-c2cnn(C)c2COC(=O)N2CC3CCC(C2)O3)ccc1O[C@H]1CCC[C@H](C(=O)O)C1 (racemic) [Compound 65, (+/−)-(1R,3R)-3-((6-(5-(((8-oxa-3-azabicyclo[3.2.1]octane-3-carbonyl)oxy)methyl)-1-methyl-1H-pyrazol-4-yl)-2-methylpyridin-3-yl)oxy)cyclohexane-1-carboxylic Acid] | 0.3 to 10 µM | C (C: 0-30%) | 
5 | CN(Cc1ccccc1)C(=O)OCc1oncc1-c1ccc(O[C@H]2CCC[C@H](C(=O)O)C2)cc1 (racemic) [Compound 68] | 0.3 to 10 µM |  | 
6 | Cc1noc(-c2ccc(O[C@H]3CCC[C@H](C(=O)O)C3)cc2)c1OC(=O)N(C)C1CCCC1 (racemic) [Compound 69] |  |  | 0.3 to 10 µM
7 | Cc1cnn(-c2ccc(O[C@H]3CCC[C@H](C(=O)O)C3)cc2)c1N(C)C(=O)OC1CCCC1 (racemic) [Compound 70] | 0.3 to 10 µM |  | 
8 | Cc1ccn(-c2ccc(O[C@H]3CCC[C@H](C(=O)O)C3)cc2)c1N(C)C(=O)OC1CCCC1 (racemic) [Compound 71] | 0.3 to 10 µM |  | 
9 | CN(C(=O)OCc1oncc1-c1ccc(O[C@H]2CCC[C@H](C(=O)O)C2)cc1)C1CCCC1 (racemic) [Compound 72] | 0.3 to 10 µM |  | 
10 | CN(C(=O)OCc1cnncc1-c1ccc(O[C@H]2CCC[C@H](C(=O)O)C2)cc1)C1CCCC1 (racemic) [Compound 74] | 0.3 to 10 µM |  | 
11 | CN(C(=O)OCc1cncnc1-c1ccc(O[C@H]2CCC[C@H](C(=O)O)C2)cc1)C1CCCC1 (racemic) [Compound 76] | 0.3 to 10 µM |  | 
12 | CN(CC1CCCC1)C(=O)OCc1c(-c2ccc(O[C@H]3CCC[C@H](C(=O)O)C3)c(F)n2)cnn1C (racemic) [Compound 77] | < 0.05 µM |  | 
13 | Cc1nc(-c2onc(C)c2COC(=O)N(C)C2CCCC2)cnc1O[C@H]1CCC[C@H](C(=O)O)C1 (racemic) [Compound 90] | < 0.05 µM |  | 
14 | Cc1nc(-c2onc(C)c2COC(=O)N(C)C2CCCC2)ncc1O[C@H]1CCC[C@H](C(=O)O)C1 (racemic) [Compound 91, (+/−)-(1S,3S)-3-((2-(4-(((cyclopentyl(methyl)carbamoyl)oxy)methyl)-3-methylisoxazol-5-yl)-4-methylpyrimidin-5-yl)ox)cyclohexane-1-carboxylic Acid] | < 0.05 µM | C (C: 0-30%) | 
15 | Cc1nc(-c2cnn(C)c2COC(=O)N(C)C2CCOC2)ccc1O[C@H]1CCC[C@H](C(=O)O)C1 (mixture of isomers) [Compound 93] | 0.3 to 10 µM | B (B: 30-50%) | 
16 | CN(C(=O)OCc1c(-c2cnc(O[C@H]3CCC[C@H](C(=O)O)C3)c(N)n2)cnn1C)C1CCCC1 (racemic) [Compound 94, (+/−)-(1S,3S)-3-((3-amino-5-(5-(((cyclopentyl(methyl)carbamoyl)oxy)methyl)-1-methyl-1H-pyrazol-4-yl)pyrazin-2-yl)oxy)cyclohexane-1-carboxylic Acid] | 0.3 to 10 µM | C (C: 0-30%) | 
17 | Cc1nc(-c2cnn(C)c2COC(=O)N(C)CC2COC2)ccc1O[C@H]1CCC[C@H](C(=O)O)C1 (racemic) [Compound 97] | 0.3 to 10 µM | C (C: 0-30%) | 
18 | CN(C(=O)OCc1c(-c2cnc(O[C@H]3CCC[C@H](C(=O)O)C3)c(F)n2)cnn1C)C1CCCC1 (racemic) [Compound 103, (+/−)-(1S,3S)-3-((5-(5-(((cyclopentyl(methyl)carbamoyl)oxy)methyl)-1-methyl-1H-pyrazol-4-yl)-3-fluoropyrazin-2-yl)oxy)cyclohexane-1-carboxylic Acid] | < 0.05 µM |  | 
19 | CN(C(=O)OCc1c(-c2ccc(O[C@H]3CCC[C@H](C(=O)O)C3)c(N3CC(O)C3)n2)cnn1C)C1CCC1 (racemic) [Compound 107] | 0.3 to 10 µM |  | 
20 | CN(C(=O)OCc1c(-c2ccc(O[C@H]3CCC[C@H](C(=O)O)C3)c(OCCO)n2)cnn1C)C1CCC1 (racemic) [Compound 111] | 0.3 to 10 µM |  | 
21 | CN(C(=O)OCc1cnccc1-c1ccc(O[C@H]2CCC[C@H](C(=O)O)C2)cc1)C1CCCC1 [Compound 75] |  |  | 0.3 to 10 µM
22 | CN(CC1CCCC1)C(=O)OCc1c(-c2ccc(O[C@H]3CCC[C@H](C(=O)O)C3)c(C#N)n2)cnn1C [Compound 78] | 0.05 to 0.3 µM |  | 

More lines, main results first:

Row | IC50 ([1]; read-out: LPAR1 IC50) | Structure (SMILES) | Cell migration inhibition rate (%) [2] | IC50 ([1]; LPAR1 IC50 (μM))
23 | < 0.05 µM | Cc1onc(-c2ccc(O[C@H]3CCC[C@H](C(=O)O)C3)cn2)c1COC(=O)N(C)C1CCCC1 (racemic) [Compound 79] |  | 
24 | 0.05 to 0.3 µM | Cc1snc(-c2ccc(O[C@H]3CCC[C@H](C(=O)O)C3)cn2)c1COC(=O)N(C)C1CCCC1 (racemic) [Compound 81] |  | 
25 | 0.05 to 0.3 µM | Cc1nsc(-c2ccc(O[C@H]3CCC[C@H](C(=O)O)C3)cn2)c1COC(=O)N(C)C1CCCC1 (racemic) [Compound 83] |  | 
26 | < 0.05 µM | Cc1nsc(-c2ccc(O[C@H]3CCC[C@H](C(=O)O)C3)c(C(F)(F)F)n2)c1COC(=O)N(C)C1CCCC1 (racemic) [Compound 84] |  | 
27 | 0.05 to 0.3 µM | Cc1nc(-c2c(C(F)(F)F)nn(C)c2COC(=O)N(C)C2CCCC2)ccc1O[C@H]1CCC[C@H](C(=O)O)C1 (racemic) [Compound 85] |  | 
28 | < 0.05 µM | Cc1noc(-c2ccc(O[C@H]3CCC[C@H](C(=O)O)C3)c(F)c2)c1COC(=O)N(C)C1CCCC1 (racemic) [Compound 86] |  | 
29 | 0.05 to 0.3 µM | Cc1nc(-c2c(N)nn(C)c2COC(=O)N(C)C2CCCC2)ccc1O[C@H]1CCC[C@H](C(=O)O)C1 (racemic) [Compound 87] |  | 
30 | 0.05 to 0.3 µM | COc1nn(C)c(COC(=O)N(C)C2CCCC2)c1-c1ccc(O[C@H]2CCC[C@H](C(=O)O)C2)c(C)n1 (racemic) [Compound 88, (+/−)-(1S,3S)-3-((6-(5-(((cyclopentyl(methyl)carbamoyl)oxy)methyl)-3-methoxy-1-methyl-1H-pyrazol-4-yl)-2-methylpyridin-3-yl)oxy)cyclohexane-1-carboxylic Acid] | C (C: 0-30%) | 
31 | 0.3 to 10 µM | Cc1nc(-c2c(COC(=O)N(C)C3CCCC3)n(C)[nH]c2=O)ccc1O[C@H]1CCC[C@H](C(=O)O)C1 (racemic) [Compound 99] |  | 
32 | < 0.05 µM | Cc1onc(-c2cnc(O[C@H]3CCC[C@H](C(=O)O)C3)c(F)n2)c1COC(=O)N(C)C1CCCC1 (racemic) [Compound 101] |  | 
33 | < 0.05 µM | Cc1onc(-c2ccc(O[C@H]3CCC[C@H](C(=O)O)C3)c(C(F)(F)F)n2)c1COC(=O)N(C)C1CCCC1 [Compound 80] |  | 
34 | < 0.05 µM | Cc1snc(-c2ccc(O[C@H]3CCC[C@H](C(=O)O)C3)c(C(F)(F)F)n2)c1COC(=O)N(C)C1CCCC1 [Compound 82] |  | 
